Data on 19 compounds can be found in patent US20220282217A1, “COMPOSITIONS AND METHODS FOR PREPARING T CELL COMPOSITIONS AND USES THEREOF” (priority 2019, published 2022).

Where a SMILES comes first, the peptide text is derived from it.

The target in the first experiment is HLA-A02.01 (Homo sapiens, UniProt P04439, D140Y/D185E/D98H/E176V/E277Q/G131W/G231S/I119V/I121R/I166T/I218V/L300P/L318F/N151K/N90K/P208A/P217A/Q86G/Q94H/R138H/R169H/T345S). The experiment is described as follows: Class I MHC peptide binding affinity (displacement of radiolabeled reference peptide). Conditions: BTK C481S peptide; HLA Allele A02.01; read-out: Affinity. The procedure, abridged:
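MHC class I complexes were loaded with a radiolabeled reference peptide, then exposed to test peptides over a range of concentrations for 2 days. Reference peptide still bound to the complexes was quantified by size-exclusion gel filtration.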
Regarding `CSCC[C@H](N)C(=O)N[C@@H](C)C(=O)N[C@@H](CC(N)=O)C(=O)NCC(=O)N[C@@H](CO)C(=O)N[C@@H](CC(C)C)C(=O)N[C@@H](CC(C)C)C(=O)N[C@@H](CC(N)=O)C(=O)N[C@@H](Cc1ccc(O)cc1)C(=O)N[C@@H](CC(C)C)C(=O)O`, the IC50 came out at 1010 nM.

The experiment is the same for the next values; noted with them: EGFR T790M peptides; HLA allele A02.01; read-out: Affinity.
For `CC[C@H](C)[C@H](NC(=O)[C@@H](N)CC(C)C)C(=O)N[C@@H](CCSC)C(=O)N[C@@H](CCC(N)=O)C(=O)N[C@@H](CC(C)C)C(=O)N[C@@H](CCSC)C(=O)N1CCC[C@H]1C(=O)N[C@@H](Cc1ccccc1)C(=O)NCC(=O)O` (H-LIMQLMPFG-OH; N-terminus and C-terminus assumed), the Kd was 3.34 µM.

Still in this experiment, the particulars now being: Observed Affinity (IC50; (nM)), allele A02.01.
`CC[C@H](C)[C@H](N)C(=O)N[C@H](C(=O)N[C@H](C(=O)N[C@@H](CCC(=O)O)C(=O)N[C@@H](Cc1ccccc1)C(=O)N[C@@H](CCSC)C(=O)N[C@H](C(=O)N[C@@H](Cc1ccc(O)cc1)C(=O)NCC(=O)O)[C@@H](C)O)[C@@H](C)CC)[C@@H](C)CC` (H-IIIEFMTYG-OH; N-terminus and C-terminus assumed) came in with an IC50 of 779 nM.

Consider `CC[C@H](C)[C@H](NC(=O)[C@@H]1CCCN1C(=O)[C@H](CC(C)C)NC(=O)[C@@H](N)CC(C)C)C(=O)N1CCC[C@H]1C(=O)N1CCC[C@H]1C(=O)N[C@@H](CC(C)C)C(=O)N[C@@H](CO)C(=O)N1CCC[C@H]1C(=O)N[C@@H](CO)C(=O)O`, for which the IC50 came to 449 nM.

The experiment is the same for the next values; noted with them: allele A02.01; read-out: Observed Affinity (IC50; (nM)).
Turning to `CC[C@H](C)[C@H](NC(=O)[C@@H](NC(=O)[C@@H](NC(=O)[C@H](CC(C)C)NC(=O)[C@@H](NC(=O)[C@@H]1CCCN1C(=O)CNC(=O)CNC(=O)[C@@H](NC(=O)[C@@H](N)[C@@H](C)O)[C@@H](C)CC)[C@@H](C)O)C(C)C)[C@@H](C)CC)C(=O)O` (H-TIGGPTLVII-OH; N-terminus and C-terminus assumed), the IC50 was determined as 10700 nM.

On to `CSCC[C@H](NC(=O)[C@H](CCC(=O)O)NC(=O)[C@H](CC(C)C)NC(=O)[C@H](CC(C)C)NC(=O)[C@H](CC(C)C)NC(=O)[C@H](CC(=O)O)NC(=O)[C@H](CO)NC(=O)[C@H](CC(C)C)NC(=O)[C@@H]1CCCN1)C(=O)N[C@@H](CC(C)C)C(=O)O` (H-PLSDLLLEML-OH; N-terminus and C-terminus assumed), for which the IC50 amounted to 6470 nM.

On to `CC(C)C[C@H](NC(=O)[C@H](CCCNC(=N)N)NC(=O)[C@@H](NC(=O)[C@@H](N)CC(C)C)C(C)C)C(=O)N[C@@H](CO)C(=O)N[C@@H](CO)C(=O)N[C@@H](CS)C(=O)N[C@H](C(=O)N1CCC[C@H]1C(=O)N[C@H](C(=O)O)C(C)C)C(C)C` (H-LVRLSSCVPV-OH; N-terminus and C-terminus assumed), for which the IC50 came out at 1240 nM.

For the compound `CC[C@H](C)[C@H](NC(=O)[C@@H](N)CC(C)C)C(=O)N[C@@H](CCSC)C(=O)N[C@@H](CCC(N)=O)C(=O)N[C@@H](CC(C)C)C(=O)N[C@@H](CCSC)C(=O)N1CCC[C@H]1C(=O)N[C@@H](Cc1ccccc1)C(=O)NCC(=O)O` (H-LIMQLMPFG-OH; N-terminus and C-terminus assumed), the IC50 came out at 3510 nM.

As for `CC[C@H](C)[C@H](NC(=O)[C@@H](N)CCCCN)C(=O)N[C@H](C(=O)N[C@@H](CCC(=O)O)C(=O)N[C@@H](CCC(N)=O)C(=O)N[C@@H](CCC(=O)O)C(=O)N[C@@H](CCCCN)C(=O)N[C@@H](CC(=O)O)C(=O)N[C@@H](Cc1ccccc1)C(=O)N[C@@H](CC(C)C)C(=O)O)[C@@H](C)O` (H-KITEQEKDFL-OH; N-terminus and C-terminus assumed), the IC50 was 1400 nM.

On to `CC(C)C[C@H](NC(=O)[C@H](CC(C)C)NC(=O)[C@H](CC(C)C)NC(=O)[C@H](CC(=O)O)NC(=O)[C@H](CC(N)=O)NC(=O)[C@H](CC(C)C)NC(=O)[C@@H]1CCCN1C(=O)[C@@H](NC(=O)[C@@H](NC(=O)[C@@H](N)CC(N)=O)C(C)C)C(C)C)C(=O)O` (H-NVVPLNDLLL-OH; N-terminus and C-terminus assumed), for which the IC50 came out at 4190 nM.

For `CC(C)C[C@H](NC(=O)[C@H](CCCNC(=N)N)NC(=O)[C@@H](NC(=O)[C@H](CC(C)C)NC(=O)[C@@H](N)CO)C(C)C)C(=O)N[C@@H](CO)C(=O)N[C@@H](CO)C(=O)N[C@@H](CS)C(=O)N[C@H](C(=O)O)C(C)C` (H-SLVRLSSCV-OH; N-terminus and C-terminus assumed), the IC50 stood at 29.9 nM.

Regarding `CC(C)C[C@H](NC(=O)[C@H](CCCNC(=N)N)NC(=O)[C@@H](N)C(C)C)C(=O)N[C@@H](CO)C(=O)N[C@@H](CO)C(=O)N[C@@H](CS)C(=O)N[C@H](C(=O)N1CCC[C@H]1C(=O)N[C@H](C(=O)N[C@@H](C)C(=O)O)C(C)C)C(C)C` (H-VRLSSCVPVA-OH; N-terminus and C-terminus assumed), the IC50 worked out at 1210 nM.

For `CC(C)C[C@H](NC(=O)[C@H](Cc1c[nH]cn1)NC(=O)[C@H](Cc1c[nH]c2ccccc12)NC(=O)[C@H](CC(C)C)NC(=O)[C@@H](N)CCCNC(=N)N)C(=O)N[C@@H](CC(C)C)C(=O)N[C@@H](CC(C)C)C(=O)N[C@@H](CCC(N)=O)C(=O)N[C@H](C(=O)N[C@H](C(=O)O)[C@@H](C)O)C(C)C` (H-RLWHLLLQVT-OH; N-terminus and C-terminus assumed), the IC50 came out at 50.9 nM.

As to `CSCC[C@H](N)C(=O)N[C@@H](C)C(=O)N[C@@H](CC(N)=O)C(=O)NCC(=O)N[C@@H](CO)C(=O)N[C@@H](CC(C)C)C(=O)N[C@@H](CC(C)C)C(=O)N[C@@H](CC(N)=O)C(=O)N[C@@H](Cc1ccc(O)cc1)C(=O)N[C@@H](CC(C)C)C(=O)O`, the IC50 was found to be 1080 nM.

Regarding `CC(C)C[C@H](NC(=O)[C@H](C)N)C(=O)N[C@@H](Cc1ccccc1)C(=O)N[C@@H](Cc1ccccc1)C(=O)N[C@@H](Cc1ccccc1)C(=O)N[C@@H](Cc1ccccc1)C(=O)N[C@@H](Cc1ccccc1)C(=O)N[C@@H](CCC(=O)O)C(=O)N[C@H](C(=O)O)[C@@H](C)O` (H-ALFFFFFET-OH; N-terminus and C-terminus assumed), the IC50 came out at 471 nM.

Consider `CC[C@H](C)[C@H](NC(=O)[C@H](CC(C)C)NC(=O)[C@@H](N)CS)C(=O)N[C@H](C(=O)N[C@@H](CO)C(=O)N[C@@H](CCCNC(=N)N)C(=O)N[C@H](C(=O)N[C@@H](CC(C)C)C(=O)N[C@@H](CC(C)C)C(=O)N[C@@H](CC(C)C)C(=O)O)[C@@H](C)O)C(C)C`, for which the IC50 amounted to 2010 nM.

As to `CC[C@H](C)[C@H](NC(=O)[C@H](CCC(N)=O)NC(=O)[C@@H](N)CO)C(=O)N[C@@H](CCSC)C(=O)N[C@@H](CO)C(=O)N[C@@H](CC(C)C)C(=O)N[C@@H](Cc1c[nH]c2ccccc12)C(=O)NCC(=O)N[C@@H](CC(C)C)C(=O)O`, the IC50 turned out to be 62 nM.

With `CC[C@H](C)[C@H](NC(=O)[C@@H](NC(=O)[C@H](CO)NC(=O)[C@H](Cc1ccccc1)NC(=O)[C@H](Cc1ccccc1)NC(=O)[C@@H](N)Cc1ccccc1)C(C)C)C(=O)N[C@@H](Cc1ccccc1)C(=O)N[C@@H](CO)C(=O)N[C@H](C(=O)O)[C@@H](C)O` (H-FFFSVIFST-OH; N-terminus and C-terminus assumed), the IC50 amounted to 4560 nM.

`CC[C@H](C)[C@H](NC(=O)[C@@H]1CCCN1C(=O)[C@H](CCCNC(=N)N)NC(=O)[C@H](Cc1c[nH]c2ccccc12)NC(=O)[C@H](CC(N)=O)NC(=O)[C@H](CCSC)NC(=O)CN)C(=O)N[C@@H](CC(C)C)C(=O)N[C@H](C(=O)O)[C@@H](C)O` (H-GMNWRPILT-OH; N-terminus and C-terminus assumed): the IC50 stood at 1130 nM.

With `CC(C)C[C@H](NC(=O)[C@H](Cc1ccccc1)NC(=O)[C@H](Cc1ccccc1)NC(=O)[C@H](CCCCN)NC(=O)[C@@H]1CCCN1C(=O)[C@H](Cc1c[nH]c2ccccc12)NC(=O)[C@H](CCCCN)NC(=O)[C@@H](NC(=O)[C@H](CC(C)C)NC(=O)[C@@H](N)Cc1ccc(O)cc1)[C@@H](C)O)C(=O)O` (H-YLTKWPKFFL-OH; N-terminus and C-terminus assumed), the IC50 was found to be 42.9 nM.

Take `CSCC[C@H](NC(=O)[C@H](CC(C)C)NC(=O)[C@H](CCCCN)NC(=O)[C@@H](N)CCCCN)C(=O)N[C@@H](CC(C)C)C(=O)N[C@@H](CC(C)C)C(=O)N[C@@H](CCCNC(=N)N)C(=O)N[C@@H](CC(C)C)C(=O)N[C@@H](CC(N)=O)C(=O)N[C@@H](CC(C)C)C(=O)O` (H-KKLMLLRLNL-OH; N-terminus and C-terminus assumed): the IC50 is 289 nM.
